Results: US20240368174A1, “Antiviral Heterocyclic Compounds” (Enanta Pharmaceuticals, Inc., priority 2023, published 2024)

What was measured:
[1] = system: genotype A, “Long” strain RSV; assay: RSV-A assay (CPE, ATPlite readout in Hep-2 cells); assay type: cell-based, Human respiratory syncytial virus; conditions: human respiratory syncytial virus, activity class
Method in brief: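 Hep-2 cells (8,000/well) infected with RSV Long strain at MOI 0.1 in the presence of 2-fold compound dilutions in duplicate. After 5 days, cell viability measured by ATPlite luminescence, normalized between virus-only and uninfected cell controls; EC50 reported.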

[2] = system: HMPV clinical isolate A2 strain TN 94-49; assay: HMPV antiviral assay, Method 2 (LLC-MK2 cells with CP-100-356, ATP-Lite); assay type: cell-based; conditions: human metapneumovirus; hMPV A2 TN/94-49, LLC-MK2 cells with CP-100-356, Method 2
Method in brief: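 LLC-MK2 rhesus kidney cells (5,000/well) infected in suspension with HMPV A2 TN 94-49 at MOI 0.16, in serum-free medium with final 2 μg/mL TPCK-trypsin and 2 μM CP-100-356. Compounds tested in duplicate from 200 nM, 2.5-fold, 10 points; 7 days at 37 °C. Cell health by ATP-Lite luminescence; EC50 by four-parameter fit.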

SMILES | EC50 [1] | EC50 [2]
C[C@]1(C(N)=O)COc2c1cc([C@@](O)(CNC(=O)c1cc(Cl)c3nn(C(F)F)cc3c1)c1ccccc1)nc2-c1cc(Cl)c(F)cc1F [Example 102] | < 200 nM | > 200 nM
COc1cc(C(=O)NC[C@](O)(c2cc3c(c(-c4ccc5c(c4Cl)OC(F)(F)O5)n2)OC[C@]3(C)C(N)=O)C2CC2)cc2cc(Cl)cnc12 [Example 105] | < 200 nM | < 200 nM
C[C@]1(C(N)=O)COc2c1cc([C@@](O)(CNC(=O)c1cc(OC3CC3)c3ncc(Cl)cc3c1)C1CC1)nc2-c1ccc2c(c1Cl)OC(F)(F)O2 [Example 106] | < 200 nM | < 200 nM
COc1cc(C(=O)NC[C@](O)(c2cc3c(c(-c4ccc5c(c4)OC(F)(F)O5)n2)OC[C@]3(C)C(N)=O)C2CC2)cc2cc(Cl)cnc12 [Example 107] | < 200 nM | < 200 nM
C[C@]1(C(N)=O)COc2c1cc([C@@](O)(CNC(=O)c1cc(OC3CC3)c3ncc(Cl)cc3c1)C1CC1)nc2-c1ccc2c(c1)OC(F)(F)O2 [Example 108] | < 200 nM | < 200 nM
COc1cc(C(=O)NC[C@](O)(c2cc3c(c(-c4ccc(F)c(Cl)c4)n2)OC[C@]3(C)C(N)=O)C2CC2)cc2oc(C3CC3)nc12 [Example 111] | < 200 nM | > 200 nM
COc1cc(C(=O)NC[C@](O)(c2cc3c(c(-c4cc(F)c(F)cc4F)n2)OC[C@]3(C)C(N)=O)C2CC2)cc2cc(Cl)nnc12 [Example 114] | < 200 nM | < 200 nM
COc1cc(C(=O)NC[C@](O)(c2cc3c(c(-c4cc(F)c(F)cc4F)n2)OC[C@]3(C)C(N)=O)C2CC2)cn2cc(C3CC3)nc12 [Example 116] | < 200 nM | < 200 nM
C[C@]1(C(N)=O)COc2c1cc([C@@](O)(CNC(=O)c1cc(Cl)c3[nH]ncc3c1)C1CC1)nc2-c1cc(F)c(F)cc1F [Example 119] | < 200 nM | > 200 nM
COc1cc(C(=O)NC[C@](O)(c2cc3c(c(-c4ccnc(F)c4Cl)n2)OC[C@]3(C)C(N)=O)C2CC2)cc2cn(C3CC3)nc12 [Example 122] | < 200 nM | < 200 nM
COc1cc(C(=O)NC[C@](O)(c2cc3c(c(-c4cc(F)c(F)cc4F)n2)OC[C@]3(C)C(N)=O)C2CC(F)(F)C2)cc2cn(C3(F)CC3)nc12 [Example 123] | < 200 nM | < 200 nM
COc1cc(C(=O)NC[C@](O)(c2cc3c(c(-c4cc(F)c(F)cc4F)n2)OC[C@]3(C)C(N)=O)C2CC(F)(F)C2)cc2oc(C3CC3)nc12 [Example 124] | < 200 nM | < 200 nM
COc1cc(C(=O)NC[C@](O)(c2cc3c(c(-c4cc(F)c(F)cc4F)n2)OC[C@]3(C)C(N)=O)C2CC2)ccc1OC[C@@H](C)O [Example 125] | < 200 nM | > 200 nM
CNCC1([C@](O)(CNC(=O)c2cc(OC)c3nn(C4CC4)cc3c2)c2cc3c(c(-c4cc(Cl)c(F)cc4F)n2)OC[C@]3(C)C(N)=O)CC1 [Example 211] | > 200 nM | > 200 nM
COc1cc(C(=O)NC[C@](O)(c2cc3c(c(-c4cc(Cl)c(F)cc4F)n2)OC[C@]3(C)C(N)=O)C2(CF)CC2)cc2cn(C3CC3)nc12 [Example 212] | < 200 nM | > 200 nM
COc1cc(C(=O)NC[C@@](O)(CN(C)C)c2cc3c(c(-c4cc(Cl)c(F)cc4F)n2)OC[C@]3(C)C(N)=O)cc2cn(C3CC3)nc12 [Example 238] | < 200 nM | > 200 nM
COc1cc(C(=O)NCC(O)(CC2CC2)c2cc3c(c(-c4cc(Cl)c(F)cc4F)n2)OC[C@]3(C)C(N)=O)cc2cn(C3CC3)nc12 (stereo partly drawn) [Example 239] | < 200 nM | > 200 nM
COc1cc(C(=O)NC[C@@](O)(CC#N)c2cc3c(c(-c4cc(Cl)c(F)cc4F)n2)OC[C@]3(C)C(N)=O)cc2cn(C3CC3)nc12 [Example 240] | < 200 nM | > 200 nM
C[C@]1(C(N)=O)COc2c1cc([C@@](O)(CNC(=O)c1ccc3nc(C4CC4)oc3c1)C1CC1)nc2-c1cc(C(F)(F)F)c(F)cc1F [Example 306] | < 200 nM | < 200 nM
COc1cc(C(=O)NC[C@](O)(c2cc3c(c(-c4cc(C(F)(F)F)c(F)cc4F)n2)OC[C@]3(C)C(N)=O)C2CC2)cc2cn(C3(F)CC3)nc12 [Example 309] | < 200 nM | < 200 nM
COc1cc(C(=O)NC[C@](O)(c2cc3c(c(-c4cc(C(F)(F)F)c(F)cc4F)n2)OC[C@]3(C)C(N)=O)C2CC2)cc2cn(C(F)F)nc12 [Example 310] | < 200 nM | < 200 nM
COc1cc(C(=O)NC[C@](O)(c2cc3c(c(-c4ccc(F)c(Cl)c4Cl)n2)OC[C@]3(C)C(N)=O)C2CC2)cc2oc(C3CC3)nc12 [Example 318] | < 200 nM | < 200 nM
C[C@]1(C(N)=O)COc2c1cc([C@@](O)(CNC(=O)c1ccc3nc(C4CC4)oc3c1)C1CC1)nc2-c1ccc(F)c(Cl)c1Cl [Example 319] | < 200 nM | < 200 nM

SMILES | EC50 [1] | EC50 [2]
COc1cc(C(=O)NC[C@](O)(c2cc3c(c(-c4ccc(F)c(Cl)c4Cl)n2)OC[C@]3(C)C(N)=O)C2CC2)cc2cc(Cl)cnc12 [Example 320] | < 200 nM | < 200 nM
C[C@]1(C(N)=O)COc2c1cc([C@@](O)(CNC(=O)c1cc(OC3CC3)c3ncc(Cl)cc3c1)C1CC1)nc2-c1ccc(F)c(Cl)c1Cl [Example 321] | < 200 nM | < 200 nM
COc1cc(C(=O)NC[C@](O)(c2cc3c(c(-c4ccc(F)c(Cl)c4Cl)n2)OC[C@]3(C)C(N)=O)C2CC2)cc2cn(C3(F)CC3)nc12 [Example 322] | < 200 nM | < 200 nM
COc1cc(C(=O)NC[C@](O)(c2cc3c(c(-c4ccc(F)c(Cl)c4Cl)n2)OC[C@]3(C)C(N)=O)C2CC2)cc2cn(C(F)F)nc12 [Example 323] | < 200 nM | < 200 nM
COc1cc(C(=O)NC[C@](O)(c2cc3c(c(-c4ccc(F)c(Cl)c4Cl)n2)OC[C@]3(C)C(N)=O)C2CC2)cc2cc(C3CC3)nn12 [Example 324] | < 200 nM | < 200 nM
C[C@]1(C(N)=O)COc2c1cc([C@@](O)(CNC(=O)c1cc(OC3CC3)n3nc(C4CC4)cc3c1)C1CC1)nc2-c1ccc(F)c(Cl)c1Cl [Example 325] | < 200 nM | < 200 nM
COc1cc(C(=O)NC[C@](O)(c2cc3c(c(-c4cc(C(F)(F)F)c(F)cc4F)n2)OC[C@]3(C)C(N)=O)C2CC2)cc2cc(C3CC3)nn12 [Example 327] | < 200 nM | < 200 nM
COc1cc(C(=O)NC[C@@](O)(C#CC(C)(C)S(C)(=O)=O)c2cc3c(c(-c4cc(Cl)c(F)cc4F)n2)OC[C@]3(C)C(N)=O)cc2cn(C3CC3)nc12 [Example 341] | < 200 nM | > 200 nM
COc1cc(C(=O)NC[C@@](O)(c2ccccc2)c2cc3c(c(-c4ccnc(F)c4Cl)n2)OC[C@]3(C)C(N)=O)cc2cn(C3CC3)nc12 [Example 343] | < 200 nM | < 200 nM
COc1cc(C(=O)NC[C@@](O)(c2ccccc2)c2cc3c(c(-c4ccnc(F)c4Cl)n2)OC[C@]3(C)C(N)=O)cc2cn(C3(F)CC3)nc12 [Example 344] | < 200 nM | < 200 nM
COc1cc(C(=O)NC[C@@](O)(c2ccccc2)c2cc3c(c(-c4ccnc(F)c4Cl)n2)OC[C@]3(C)C(N)=O)cc2oc(C3CC3)nc12 [Example 345] | < 200 nM | < 200 nM
COc1cc(C(=O)NC[C@@](O)(c2ccccc2)c2cc3c(c(-c4ccnc(F)c4Cl)n2)OC[C@]3(C)C(N)=O)cc2cc(Cl)cnc12 [Example 346] | < 200 nM | < 200 nM
COc1cc(C(=O)NC[C@](O)(c2cc3c(c(-c4cc(C(F)(F)F)ncc4F)n2)OC[C@]3(C)C(N)=O)C2CC2)cc2cn(C3CC3)nc12 [Example 347] | < 200 nM | < 200 nM
COc1cc(C(=O)NC[C@](O)(c2cc3c(c(-c4cc(C(F)(F)F)ncc4F)n2)OC[C@]3(C)C(N)=O)C2CC2)cc2cn(C3(F)CC3)nc12 [Example 348] | < 200 nM | < 200 nM
COc1cc(C(=O)NC[C@](O)(c2cc3c(c(-c4cc(C(F)(F)F)ncc4F)n2)OC[C@]3(C)C(N)=O)C2CC2)cc2oc(C3CC3)nc12 [Example 349] | < 200 nM | < 200 nM
COc1cc(C(=O)N(C)C[C@](O)(c2cc3c(c(-c4ccc(F)c(Cl)c4)n2)OC[C@]3(C(N)=O)C(F)F)C2CC2)cc2cn(C3CC3)nc12 [Example 350] | < 200 nM | > 200 nM
COc1cc(C(=O)N(C)C[C@](O)(c2cc3c(c(-c4ccc(F)c(Cl)c4)n2)OC[C@@]3(C(N)=O)C(F)F)C2CC2)cc2cn(C3CC3)nc12 [Example 351] | > 200 nM | > 200 nM
COc1cc(C(=O)NC[C@](O)(c2cc3c(c(-c4cc(C(F)(F)F)ncc4F)n2)OC[C@]3(C)C(N)=O)C2CC2)cc2cn(C(F)F)nc12 [Example 352] | < 200 nM | < 200 nM
COc1cc(C(=O)NC[C@@](O)(c2cccc(F)c2)c2cc3c(c(-c4cc(F)ncc4Cl)n2)OC[C@]3(C)C(N)=O)cc2cn(C3CC3)nc12 [Example 376] | < 200 nM | < 200 nM
COc1cc(C(=O)NC[C@@](O)(c2cccc(F)c2)c2cc3c(c(-c4ccnc(C)c4Cl)n2)OC[C@]3(C)C(N)=O)cc2cn(C3CC3)nc12 [Example 378] | < 200 nM | < 200 nM
COc1cc(C(=O)NCC(O)(c2cccc(F)c2)c2cc3c(c(-c4cc(C(F)(F)F)ncc4Cl)n2)OC[C@]3(C)C(N)=O)cc2cn(C3CC3)nc12 (stereo partly drawn) [Example 379] | < 200 nM | > 200 nM
COc1cc(C(=O)NC[C@](O)(c2cc3c(c(-c4ccnc(F)c4Cl)n2)OC[C@]3(C)C(N)=O)C(F)(F)F)cc2cn(C(F)F)nc12 [Example 380] | < 200 nM | < 200 nM
